Laboratory results taken from patent US10689413B2, “Composition enriched in single isomer of NUC-1031 and preparation method and use thereof” (BrightGene Bio-Medical Technology Co., Ltd., priority 2015, dated 2020).
pIC50: −log10 of the molar value. Entries after “also recorded” stand apart in the source; their conditions may differ.

Assays:
[1] = test system: MIA PaCa-2 human pancreatic cancer subcutaneous xenograft; assay: Pharmacodynamic evaluation in human pancreatic cancer subcutaneous xenograft mouse model; format: in vivo, BALB/c nude mice; settings: for Relative tumor inhibition rate TGI: 0.19 mmoL/kg i.p. twice a week for 4 consecutive weeks (gemcitabine 50 mg/kg, others 110 mg/kg)
Method: Cell Culture: MIA PaCa-2 cells were cultured in a DMEM culture medium containing 10% fetal bovine serum and 2.5% HS. MIA PaCa-2 cells in an exponential growth phase were collected and resuspended in PBS to a suitable concentration for the subcutaneous tumor inoculation in nude mice.
Animal modeling and Grouping: BALB/c nude mice, female, 6 to 8 weeks old (the predicted weeks of age of the mice when being inoculated with tumor cells), 18 to 22 g, purchased from Shanghai Lingchang Biological Technology Co., LTD. A total of 52 mice (40 plus 30% surplus) were required. After grouping, there were 5 groups in total, each group having 8 mice. All experimental mice were raised in a barrier system and adapted to the environment for at least 7 days in advance. Each mice was subcutaneously inoculated with 3×10^6 MIA PaCa-2 cells on the right back and the cells were resuspended in PBS and matrigel (1:1) (0.1 ml/mice); the tumor growth was observed regularly, and when the tumor volumes reached an average size of 150 to 200 mm^3, the mice were randomly divided into groups according to the size of tumor and body weight of the mice, and the drugs were administered.
Relative tumor inhibition rate TGI(%): TGI %=(1−T/C)×100%. T/C % is the relative tumor growth rate, which is the percentage of the relative tumor volume or tumor weight of the treatment groups with respect to the control group at a certain timepoint. T and C are the relative tumor volume (RTV) or tumor weight (TW), respectively, of the treatment groups and the control group at a particular timepoint.
The calculation formula is as follows: T/C %=TRTV/CRTV×100% (TRTV: the average RTV of a treatment group; CRTV: the average RTV of the vehicle control group; RTV=Vt/V0, V0 is the tumor volume of an animal at the time of grouping, Vt is the tumor volume of an animal after treatment). Or T/C %=TTW/CTW×100% (TTW: the average tumor weight of a treatment group at the end of the experiment; CTW: the average tumor weight of the vehicle control group at the end of the experiment).

[2] = test system: MIA PaCa-2 tumor cells; assay: Tumor cell proliferation in vitro, CTG method, MIA PaCa-2; format: cell-based, human; settings: MIA PaCa-2, 72 hours; for pIC50: Homo sapiens
Method: (§1) The 50% inhibitory concentrations (IC50) for the cell proliferation of the compound Sp-1, the compound Rp-1 and NUC-1031 in BxPC-3, MIA PaCa-2 and OVCAR-3 tumor cell lines were measured using the CTG method.
(§2) Cells in an exponential growth phase were collected and the viable cells were counted using a Vi-Cell XR cell counter. The cell suspension was adjusted to 3.33×10^4/ml or 5.56×10^4/ml with culture media corresponding to the respective cells. 90 μl of cell suspension was added to each well of a 96-well cell culture plate, and the final cell concentrations of BxPC-3 and MIA PaCa-2 were 3000 cells/well and the final cell concentration of OVCAR-3 was 5000 cells/well. Each test compound was dissolved in DMSO to become 10 mM stock solutions. 3.16× serial dilutions were prepared by the stock solutions and DMSO. Then the dilutions were respectively diluted 100 times with the culture media. Finally, to each well of the respective cell lines was added 10 μl of the corresponding 10-fold solution, triplicate wells were set up for each drug concentration (see the methods for formulating the compounds and the design of sample adding: the plate map for IC50 determination); for the concentration ranges of the test compounds and the reference compounds used for the final tests, please see the methods for formulating the compounds and the design of sample adding on the following pages: the test compounds and the reference compounds were diluted, and the final concentration of DMSO in each well was 0.1%. The cells were placed in an incubator at 37° C. with 5% CO2 to be cultured for 72 hours (BxPC-3, MIA PaCa-2) or 96 hours (OVCAR-3). After 72 or 96 hours of drug treatment, 50 μl (½ culture volume) of CTG solution, which had been melted and equilibrated to room temperature in advance was added to each well according to the operating instruction of CTG; the mixtures were mixed evenly for 2 minutes with a microwell plate shaker, placed at room temperature for 10 minutes, and then an Envision 2104 plate reader was used to measure the values of the […] signals.
(§3) Cell viability was calculated with the formula: Vsample/Vvehicle control×100%, wherein Vsample is the reading of the treatment group and Vvehicle control is the average value of the vehicle control group. Non-linear regression model was used to plot the S-shape dose-survival rate curves and calculate the IC50 values using GraphPad Prism 5.0 software.

[3] = test system: BxPC-3, MIA PaCa-2 and OVCAR-3 tumor cells; assay: Tumor cell proliferation in vitro, summary over the three cell lines; format: cell-based; settings: for pIC50: span over BxPC-3, MIA PaCa-2 and OVCAR-3, read-out: IC50 values (cytotoxic effect)
Method: as §1, §2, §3

[4] = test system: OVCAR-3 tumor cells; assay: Tumor cell proliferation in vitro, CTG method, OVCAR-3; format: cell-based; settings: OVCAR-3, 96 hours; for pIC50: Homo sapiens
Method: as §1, §2, §3

[5] = test system: BxPC-3 tumor cells; assay: Tumor cell proliferation in vitro, CTG method, BxPC-3; format: cell-based; settings: BxPC-3, 72 hours; for pIC50: Homo sapiens
Method: as §1, §2, §3

SMILES	Relative tumor inhibition rate TGI [1]	pIC50 [2]	Max inh. [2]	pIC50 [3]	pIC50 [4]	Max inh. [4]	Max inh. [5]	pIC50 [5]	inhibitory effect on the proliferation activity of tumor cells in vitro relative to compound Rp-1 ([3]; versus compound Rp-1)	in vivo antitumor activity, comparison in words ([1]; equimolar dose, i.p., BIW x 4)
Nc1ccn([C@@H]2O[C@H](CO)[C@@H](O)C2(F)F)c(=O)n1 [Gemcitabine, reference compound]	55%									
C[C@H](N[P@@](=O)(OC[C@H]1O[C@@H](n2ccc(N)nc2=O)C(F)(F)[C@@H]1O)Oc1ccccc1)C(=O)OCc1ccccc1 [Compound Rp-1]	22%	9.90	69.2%	9.00 to 11.00	9.78	54.19%	61.54%	9.26		
C[C@H](NP(=O)(OC[C@H]1O[C@@H](n2ccc(N)nc2=O)C(F)(F)[C@@H]1O)Oc1ccccc1)C(=O)OCc1ccccc1 (stereo partly drawn) [NUC-1031]	54%	10.20	65.03%	9.00 to 11.00	10.02	56.3%	65.82%	9.58		
C[C@H](N[P@](=O)(OC[C@H]1O[C@@H](n2ccc(N)nc2=O)C(F)(F)[C@@H]1O)Oc1ccccc1)C(=O)OCc1ccccc1 [Compound Sp-1]	79%	10.92	71%	9.00 to 11.00	10.89	58.22%	66.48%	10.35	about 10 times	better in vivo anti-tumor activity than the compound Rp-1; also recorded: better in vivo antitumor activity as compared with gemcitabine and the compound Rp-1
